Measured values reported in patent publication EP2386565A2, “Compounds and methods to inhibit or augment an inflammatory response” (Cambridge Enterprise Ltd., priority 1999, dated 2000).
Positions of bridges follow the written chain, without caps; N, C: chain ends. Non-standard residues stand in square brackets, D forms with d. Residues, ends and D or L forms follow the SMILES beside them. No end group written: not given here.

Legend:
[1] = system: chemokine-induced THP-1 migration; assay: THP-1 trans-well migration assay, several chemokines together (averages, selectivity, pan-chemokine statements); type: cell-based, human; details: for effect on chemokine-induced THP-1 migration (in words): MCP-1, MIP1α, IL-8 and SDF1α
Procedure: To determine whether an agent inhibits a chemokine-induced activity, such as macrophage recruitment, varying amounts of the agent are mixed with cells in the presence of a known chemoattractant. […] Chemokine (such as MCP-1, MIP1α, IL8 or SDF-1α), at a concentration known to cause significant migration of THP-1 cells in the trans-well migration assay, is placed in the lower compartment (Figure 1). Cells are then incubated at 37°C for a period sufficient to allow migration, e.g., 4 hours. After incubation, the cells are gently removed from the top of the filter with a pipette, 20 µl of 20 mM EDTA in simple PBS is added into each top well, and incubated for 20 minutes at 4°C. The filter is carefully flushed with media using a gentle flow, and removed. […] The media is carefully aspirated from each well, and the converted dye is solubilized by 20 µl of DMSO.
Chemotaxis was induced in a 96-well disposable chemotaxis chamber fitted with a 5 µM polycarbonate filter (PVP free, ChemoTX, Neuroprobe Inc., Cabin John). […] The framed filter was aligned with the holes in the corner of the filter frame and placed over the wells.
Peptides were dissolved in Milli Q water and then serially diluted in culture medium. In most cases, the serially diluted peptides were added to the upper compartment of the chemotaxis chamber. The chamber was incubated at 37°C in a humidified atmosphere of 5% CO2 for 4 hours.
After incubation, the cells were gently removed from the top of the filter with a pipette, 20 µl of 20 mM EDTA in PBS was added into each top well, and the mixture was incubated for 20 minutes at 4°C. The filter was then carefully flushed with media using a gentle flow, and removed. […] The curve was based on a two-fold dilution series of THP-1 cells (top standard 100,000 cells in 29 µl). […] The media was carefully aspirated from each well, and the converted dye was solubilized by 20 µl of DMSO.
Representative chemokines included […] ("CC"), MIP-1α and RANTES, and two alpha-chemokines ("CXC"), IL-8 and SDF-1α. Additionally, to determine the specificity ofpeptide 3(1-12)[MCP-1]
The number of pluses is a qualitative indicating of the activity of each peptide in each assay.

[2] = system: gp120; details: ns = not significant; >100 = ED50 not determined
Procedure: Binding assays. Cells (either Jurkat T-cells or THP-1 cells) were grown in RPMI 1640 medium supplemented with 10% fetal calf serum, 2 mM glutamine, 20 µM β-mercaptoethanol, 100 U/ml penicillin and 100 µg/ml streptomycin and maintained between 2 × 10^5 and 1 × 10^6 cells/ml. Prior to performing a binding assay, cells were spun out (100 × g; 4 minutes) and washed 3 times in ice-cold PBS. A volume of cell suspension in PBS containing 10^6 cells (for Jurkat cells) or 4 × 10^5 cells (for THP-1 cells) was pipetted into each well of a V-bottom 96-well plate (Gibco BRL) and spun out (100 x g; 4 minutes). Triplicate wells were then resuspended in 100 µl binding medium (PBS pH 7.2 containing 0.1% fatty acid-free bovine serum albumin (BSA)) containing labeled peptide in the presence or absence of various concentrations of unlabeled peptide. The plate was then incubated on ice for 90 minutes. Cells were washed 3 times with 380 µl of ice-cold PBS, spinning out the cells each time (100 × g; 4 minutes), and resuspended in 100 µl binding medium containing streptavidin-peroxidase (Amersham International) at 1:1000 dilution. Cells were incubated for a further 15 minutes on ice to allow labeling of any bound biotinylated peptide, then washed 4 times as above. Cells were then incubated with 200 µl TMB substrate (K-Blue, Bionostics) for 20 minutes at room temperature, and the reaction stopped by addition of 50 µl 2 M HCl. The plate was spun (3,000 × g; 3 minutes) and 200 µl of the colored product was transferred to an empty 96-well ELISA plate and the absorbance at 450 nm determined. For each assay, the absorbance of a blank reaction (no peptide added) was subtracted from all readings before further analysis.
Binding experiments with labeled peptide 2 were performed with 10 nM labeled peptide in each reaction.

[3] = system: HIV; type: cell-based; details: ns = not significant

## CC[C@@H](C)[C@H]1NC(=O)[C@@H](CCC(N)=O)NC(=O)[C@H](N)CSSC[C@H](C(N)=O)NC(=O)[C@@H](CC(C)C)NC(=O)[C@@H](CC(=O)O)NC(=O)[C@H]2CCCN2C(=O)[C@@H](CCCCN)NC(=O)[C@@H](CCC(N)=O)NC(=O)[C@@H](CCCCN)NC(=O)[C@@H](Cc2c[nH]c3ccccc23)NC1=O (H-[dC][dQ][dI][dW][dK][dQ][dK][dP][dD][dL][dC]-NH2; disulfide 1-11)
[1]
  effect on chemokine-induced THP-1 migration (in words): very similar ED50s
[1]; average inhibitory ED50 for THP-1 migration induced by each of the chemokines
  Average ED50: 100 nM

## CC[C@H](C)[C@H](NC(=O)[C@H](C)NC(=O)[C@H](CC(=O)O)NC(=O)[C@@H]1CCCN1C(=O)[C@H](CCC(N)=O)NC(=O)[C@H](C)N)C(=O)N[C@@H](CC(N)=O)C(=O)N[C@@H](C)C(=O)N1CCC[C@H]1C(=O)N[C@H](C(=O)N[C@H](C(=O)N[C@@H](CS)C(=O)N[C@@H](CS)C(=O)O)[C@@H](C)O)C(C)C [Peptide 1] (H-AQPDAINAPVTCC-OH; N-terminus and C-terminus assumed)
[1]; 100 µM, CC and CXC chemokines
  % inhibition at 100 µM of migration induced by any of the chemokines tested: ≤ 20%
[1]
  effect on chemokine-induced THP-1 migration (in words): no significant effect

## =cvaekpsksstirrysc= ([dC][dV][dA][dE][dK][dP][dS][dK][dS][dS][dT][dI][dR][dR][dY][dS][dC]; bridge 1-17 (inferred); not fully specified; printed as =cvaekpsksstirrysc=)
[2]
  gp120 ED-50 (µM): ns
[3]
  % virus inhibition: ns

## CSYRRITSSKSPKEAVC
[2]
  gp120 ED-50: >100 µM
[3]
  % virus inhibition: ns
